Data reported in the NIST ThermoML archive (doi:10.1021/je500498m).

Assay: xn = mol fraction of the nth substance listed
Conditions: for speed of sound: 100 kPa, Sing-around technique in a fixed-path interferometer; for speed of sound / viscosity / mass density: Liquid; for viscosity / mass density: 101 kPa; for viscosity: Falling or rolling sphere viscometry; for mass density: Vibrating tube method; for surface tension liquid-gas: 294.4 K, Pendant drop shape

CCCCCCCCCCCCCCCC [hexadecane] + Cc1ccccc1
Conditions | mass density [kg/m3] | speed of sound [m/s] | viscosity [mPa·s]
293.15 K, x2 = 0 | 773.49 | 1357.3 | 3.44
293.15 K, x2 = 0.1002 | 776.71 | 1352.9 | 3.03
293.15 K, x2 = 0.2 | 780.38 | 1348.1 | 2.64
293.15 K, x2 = 0.3018 | 784.83 | 1343.1 | 2.28
293.15 K, x2 = 0.4001 | 789.87 | 1337.2 | 1.96
293.15 K, x2 = 0.5 | 796.1 | 1332 | 1.66
293.15 K, x2 = 0.6001 | 803.76 | 1326.5 | 1.4
293.15 K, x2 = 0.7005 | 813.44 | 1321.5 | 1.16
293.15 K, x2 = 0.8001 | 825.95 | 1318 | 0.94
293.15 K, x2 = 0.8999 | 842.77 | 1318 | 0.76
303.15 K, x2 = 0 | 766.55 | 1320 | 2.72
303.15 K, x2 = 0.1002 | 769.7 | 1315.5 | 2.42
303.15 K, x2 = 0.2 | 773.29 | 1310.6 | 2.14
303.15 K, x2 = 0.3018 | 777.64 | 1305.5 | 1.87
303.15 K, x2 = 0.4001 | 782.56 | 1299.4 | 1.63
303.15 K, x2 = 0.5 | 788.63 | 1293.9 | 1.4
303.15 K, x2 = 0.6001 | 796.11 | 1288 | 1.19
303.15 K, x2 = 0.7005 | 805.54 | 1282.4 | 1
303.15 K, x2 = 0.8001 | 817.73 | 1278.2 | 0.82
303.15 K, x2 = 0.8999 | 834.11 | 1277 | 0.67
313.15 K, x2 = 0 | 759.63 | 1283.3 | –
313.15 K, x2 = 0.1002 | 762.7 | 1278.7 | –
313.15 K, x2 = 0.2 | 766.2 | 1273.6 | –
313.15 K, x2 = 0.3018 | 770.44 | 1268.4 | –
313.15 K, x2 = 0.4001 | 775.24 | 1262.1 | –
313.15 K, x2 = 0.5 | 781.15 | 1256.2 | –
313.15 K, x2 = 0.6001 | 788.42 | 1250 | –
313.15 K, x2 = 0.7005 | 797.59 | 1243.8 | –
313.15 K, x2 = 0.8001 | 809.46 | 1238.8 | –
313.15 K, x2 = 0.8999 | 825.38 | 1236.4 | –
323.15 K, x2 = 0 | 752.71 | 1247.3 | 1.82
323.15 K, x2 = 0.1002 | 755.7 | 1242.6 | 1.65
323.15 K, x2 = 0.2 | 759.11 | 1237.4 | 1.49
323.15 K, x2 = 0.3018 | 763.23 | 1231.9 | 1.33
323.15 K, x2 = 0.4001 | 767.89 | 1225.4 | 1.18
323.15 K, x2 = 0.5 | 773.64 | 1219.2 | 1.04
323.15 K, x2 = 0.6001 | 780.71 | 1212.5 | 0.9
323.15 K, x2 = 0.7005 | 789.6 | 1205.7 | 0.77
323.15 K, x2 = 0.8001 | 801.12 | 1199.9 | 0.64
323.15 K, x2 = 0.8999 | 816.6 | 1196.3 | 0.52
333.15 K, x2 = 0 | 745.79 | 1212 | 1.54
333.15 K, x2 = 0.1002 | 748.7 | 1207.1 | 1.4
333.15 K, x2 = 0.2 | 752 | 1201.7 | 1.27
333.15 K, x2 = 0.3018 | 756 | 1196 | 1.15
333.15 K, x2 = 0.4001 | 760.53 | 1189.2 | 1.03
333.15 K, x2 = 0.5 | 766.1 | 1182.7 | 0.9
333.15 K, x2 = 0.6001 | 772.93 | 1175.6 | 0.79
333.15 K, x2 = 0.7005 | 781.29 | 1168.2 | 0.67
333.15 K, x2 = 0.8001 | 792.74 | 1161.7 | 0.56
333.15 K, x2 = 0.8999 | 807.75 | 1156.7 | 0.47
343.15 K, x2 = 0 | 738.9 | – | 1.31
343.15 K, x2 = 0.1002 | 741.7 | – | 1.21
343.15 K, x2 = 0.2 | 744.9 | – | 1.1
343.15 K, x2 = 0.3018 | 748.9 | – | 1
343.15 K, x2 = 0.4001 | 753.2 | – | 0.89
343.15 K, x2 = 0.5 | 758.6 | – | 0.8
343.15 K, x2 = 0.6001 | 765.2 | – | 0.69
343.15 K, x2 = 0.7005 | 773.6 | – | 0.6
343.15 K, x2 = 0.8001 | 784.3 | – | 0.51
343.15 K, x2 = 0.8999 | 798.8 | – | 0.43
353.15 K, x2 = 0 | 731.8 | – | 1.13
353.15 K, x2 = 0.1002 | 734.5 | – | 1.05
353.15 K, x2 = 0.2 | 737.7 | – | 0.96
353.15 K, x2 = 0.3018 | 741.4 | – | 0.87
353.15 K, x2 = 0.4001 | 745.7 | – | 0.79
353.15 K, x2 = 0.5 | 750.9 | – | 0.7
353.15 K, x2 = 0.6001 | 757.2 | – | 0.61
353.15 K, x2 = 0.7005 | 765.3 | – | 0.54
353.15 K, x2 = 0.8001 | 775.7 | – | 0.46
353.15 K, x2 = 0.8999 | 789.7 | – | 0.39
363.15 K, x2 = 0 | 724.7 | – | 0.99
363.15 K, x2 = 0.1002 | 727.3 | – | 0.92
363.15 K, x2 = 0.2 | 730.4 | – | 0.85
363.15 K, x2 = 0.3018 | 733.9 | – | 0.77
363.15 K, x2 = 0.4001 | 738 | – | 0.7
363.15 K, x2 = 0.5 | 743.1 | – | 0.62
363.15 K, x2 = 0.6001 | 749.2 | – | 0.55
363.15 K, x2 = 0.7005 | 756.9 | – | 0.48
363.15 K, x2 = 0.8001 | 767 | – | 0.4
363.15 K, x2 = 0.8999 | 780.4 | – | 0.33
373.15 K, x2 = 0 | 717.5 | – | 0.87
373.15 K, x2 = 0.1002 | 720 | – | 0.81
373.15 K, x2 = 0.2 | 722.9 | – | 0.76
373.15 K, x2 = 0.3018 | 726.3 | – | 0.69
373.15 K, x2 = 0.4001 | 730.3 | – | 0.64
373.15 K, x2 = 0.5 | 735.1 | – | 0.56
373.15 K, x2 = 0.6001 | 741 | – | –
373.15 K, x2 = 0.7005 | 748.5 | – | –
373.15 K, x2 = 0.8001 | 758 | – | –

Conditions | surface tension liquid-gas [mN/m]
x2 = 0 | 27.3
x2 = 0.4001 | 27.3
x2 = 0.5 | 27.5
x2 = 0.6001 | 27.6
x2 = 0.7006 | 27.7
x2 = 0.8001 | 27.8
x2 = 0.8999 | 28
